Source: patent publication US10905738B2, “Synthetic peptides, prodrugs, pharmaceutical compositions and uses” (Biozeus Desenvolvimento De Produtos Biofarmacêuticos, priority 2018, dated 2021)
Where a SMILES comes first, the peptide text is derived from it.

Columns and labels:
cavernosal strips = experiment: relaxation induced by electric stimuli in cavernosal strips pre-contracted with phenylephrine ex vivo; design: species or system rats of Sprague Dawley (SD) lineage; conditions: peptides 10^−10 M; 10^−8 M; 10^−6 M; FIG. 3
Protocol: The relaxing potential of the peptides of the present invention on the smooth muscles of cavernous strips was evaluated ex vivo using tissue isolated from rats, a model that is largely used to test drug candidates for the treatment of ED (ITALIANO, G., CALABRÒ, A., PAGANO, F. A simplified in vitro preparation of the corpus cavernosum as a tool for investigating erectile pharmacology in the rat. Pharmacological research, 30(4): 325-334. 1994; GEMALMAZ, H., WALDECK, K., CHAPMAN, T. N., TUTTLE, J. B., STEERS, W. D., ANDERSSON, K E. In vivo and in vitro investigation of the effects of sildenafil on rat cavernous smooth muscle. The Journal of Urology, 165(3): 1010-1014.2001).
Male rats of Sprague Dawley (SD) lineage were sacrificed by guillotine; the penises were removed surgically and placed on a Petri dish containing Krebs—bicarbonate solution (NaCl 118.1 mM; KCl 4.7 mM; KH2PO4 1.0 mM; MgSO4 1.0 mM; NaHCO3 25.0 mM; CaCl2) 2.5 mM and Glucose 11.1 mM). The corpus cavernosum were dissected by removing the glans, urethra, spongeous body and dorsal vein, and then separated by cutting the fibrous septum between them. Cavernosal strips measuring 2×2×7 mm were mounted separately in a bath for isolated organs containing bicarbonate solution-Krebs (pH 7.4) at 37° C., aerated with 95% of O02 and 5% of CO2. The tissue was connected to a tension transducer and the changes in tension were continuously registered. The cavernosal strips were contracted with phenylephrine (10^−5 M) and subsequently relaxed by electrical stimulation at different frequencies (1 to 32 Hz). […] Differences in the percentage of relaxation between treatment and control were evaluated with regard to statistical significance by means of two-way variance analysis (Two-Way ANOVA) followed by Bonferroni post-test. For the comparison between the treatments and control in light of the stimulation in a single frequency, the results were evaluated by one-way analysis variance (One-Way ANOVA) followed by Bonferroni post-test. […]

[1] = test system: house dust mite (HDM) sensitized A/J mice; type: in vivo, Male A/J mice; conditions: 10 nMol and 30 nMol per animal, 6 h after intratracheal instillation
Protocol: Male A/J mice (18-20 g), were sensitized by house dust mite (HDM) to established acute allergic asthma according to the protocol of Haspelagh et al (HASPESLAGH, E., DEBEUF, N., HAMMAD, H., LAMBRECHT, B. N. Murine Models of Allergic Asthma. Methods Mol Biol, 1559:121-136. 2017). Inflammatory cell infiltrations in the bronchoalveolar lavage fluid (BALF) were analyzed by flow cytometry.
The mice (n=5 per group) were treated with vehicle (PBS), SEQ ID NO: 19, SEQ ID NO: 24 or PnTx(19), at doses of 10 nMol and 30 nMol per animal, by intratracheal instillation, and material were collected 6 hours post-challenge.

SMILES | enhancing effect on relaxation induced by electric stimuli in strips of cavernous body contracted by phenylephrine (cavernosal strips) | neutrophil accumulation in the bronchoalveolar space [1]
CC[C@H](C)[C@H](NC(C)=O)C(=O)N[C@@H](C)C(=O)N[C@@H](Cc1c[nH]c2ccccc12)C(=O)N[C@@H](Cc1ccc(O)cc1)C(=O)N[C@@H](CCCCN)C(N)=O [SEQ ID NO: 24, Ac-Ile-Ala-Trp-Tyr-Lys-NH2] (Ac-IAWYK-NH2) | enhancing effect | did not induce neutrophil accumulation
CC[C@H](C)[C@H](NC(=O)[C@H](Cc1c[nH]c2ccccc12)NC(=O)[C@H](Cc1ccccc1)NC(C)=O)C(=O)N[C@@H](C)C(=O)N[C@@H](Cc1c[nH]c2ccccc12)C(=O)N[C@@H](Cc1ccc(O)cc1)C(=O)N[C@@H](CCCCN)C(=O)N[C@@H](CC(C)C)C(=O)N[C@@H](C)C(N)=O [SEQ ID NO: 19, Ac-Phe-Trp-Ile-Ala-Trp-Tyr-Lys-Leu-Ala-NH2] (Ac-FWIAWYKLA-NH2) | enhancing effect | did not induce neutrophil accumulation
